The record followed here is US20250313555A1, “2-SUBSTITUTED THIAZOLE AND BENZOTHIAZOLE COMPOSITIONS AND METHODS AS DUX4 INHIBITORS” (ALTAY THERAPEUTICS, INC., priority 2022, published 2025).

SMILES strings stand for the structures.

As usually defined, the EC50 is the concentration needed to bring the measured effect to its halfway point. Broadly, the CC50 is the concentration that lowers cell viability or growth by half. Low values mean harm at low concentration, high ones better tolerance by the cells.

The target of one data set is T1, DUX4 (Homo sapiens, UniProt Q9UBX2).
T1 construct: expressed in transfected cells; host or cells: HEK293
T1 sequence (Q9UBX2 whole entry): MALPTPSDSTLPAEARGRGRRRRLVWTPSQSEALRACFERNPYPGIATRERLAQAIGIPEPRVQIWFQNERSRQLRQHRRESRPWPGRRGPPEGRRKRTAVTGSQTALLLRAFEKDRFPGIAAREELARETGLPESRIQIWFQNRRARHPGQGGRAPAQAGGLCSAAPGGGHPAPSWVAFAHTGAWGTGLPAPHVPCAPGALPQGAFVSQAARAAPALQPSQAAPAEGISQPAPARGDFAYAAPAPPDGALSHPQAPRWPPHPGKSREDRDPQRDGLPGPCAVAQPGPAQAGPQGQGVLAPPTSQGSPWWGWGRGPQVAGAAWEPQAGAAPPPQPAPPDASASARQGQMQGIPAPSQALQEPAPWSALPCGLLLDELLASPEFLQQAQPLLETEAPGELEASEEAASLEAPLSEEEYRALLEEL
The data set can be described thus: DUX4 EC50 luciferase reporter protocol in transfected HEK293 cells. In kind it is cell-based. Particulars: 6 hr. The source says:
EC50 Protocol This example provides a representative protocol for a single well of a 96-well plate. It can be scaled up as necessary for treatment of multiple wells. For negative controls, a well containing reporter DNA, Renilla DNA, and turbofect (without expression vector) were used. For positive controls, wells containing cells that were not treated with any inhibitor were used. They were transfected with the complete DNA lipid complex as set forth below. The DNA-lipid complex for one well of the 96-well plate is prepared by adding to a tube 100 ng of the transfection factor (TF) expression vector, 100 ng of TF reporter DNA, 10 ng of Renilla reporter DNA, […] Turbofect transfection reagent, and […] of the medium without any serum or penicillin/streptomycin. The combination was mixed by gentle flicking of the tube, and the mixture was pipetted into a well of a 96-well plate. The plate was then gently tapped to spread the combination evenly on the bottom of the well. The well was incubated for 30 min. HEK293 cells were grown until 80% confluent in DMEM supplemented with 10% fetal bovine serum, 1% penicillin streptomycin, and 1% amphotericin B. The adherent cells growing on a 10 cm plate were trypsinized with 1 mL of prewarmed trypsin. Once the cells detached from the plate, 10 mL of medium was added, and the cells were strained through a […] cell strainer. The cells were counted using a mixture of 10 mL cell suspension with 10 mL of trypan blue. Once the total number of cells are counted, a dilution of 150 k/mL was prepared. After incubation of the transfection complex was complete, […] of HEK293s (23.25 k total cells) were gently dispensed on top of the wells containing the 25 mL transfection complex, producing a total volume of about 180 mL. The mixture was then incubated for 24 h. To treat cells with each inhibitor, the inhibitors were prepared in the same growth medium. In a deep well block, the regular medium with serum was added to well 1 (135 mL) and to wells 2 through 10 (100 mL). To the first well was added 15 mL of 10 nM inhibitor. The final concentration of the drug in well 1 was 1 nM. The wells were pipeted up and down, and 50 mL was transferred from well 1 to well 2 (1/3 dilution). The well was mixed, and the seriation dilution was repeated with the remaining wells. Once the serial dilution was complete, using a multichannel pipet, 20 mL of each inhibitor were transferred to designated wells in a 96-well plate. […] Before the assay, a sufficient amount of 1× passive lysis buffer was prepared. The luciferase substrate buffer (Promega) was thawed completely and then mixed with the lyophilized luciferase substrate. The stop buffer (Promega) was also completely thawed. (1) Cell lysis: After treatment of the cells was complete, all the cell media is removed by flipping the 96-well plate over and tapping it dry on a dry paper towel. Immediately afterwards, the 1× passive lysis buffer (25 μL) was added. The plates were then placed on a rocker for 15 minutes at medium speed. (2)Measuring luciferase signal: The luciferase substrate solution for all wells was placed in a solution basin. The luciferase substrate solution was then added to every well (100 μL/well) using a multichannel pipette. The total luminescence was then read immediately using a plate reader. (3)Measuring Renilla signal: The “complete stop solution” was prepared in a solution basin by mixing the buffer with the 50× stop solution substrate (Promega) to make the final 1× solution. The complete stop solution was added to each well (50 μL/well) using a multichannel pipette. The total luminescence was then read immediately using a plate reader. Using a spreadsheet (e.g., Excel), the luciferase signal was divided by the renilla signal to get a relative luciferase unit.
For orientation: A reporter such as luciferase makes a cellular process visible.
With `CC(=O)NCCCNC(=O)c1cc(C#N)cc(-c2nc3cc(F)ccc3s2)c1` [Compound 188], the EC50 is more than 10 µM.
In the case of `CC(=O)NCCCC(=O)Nc1cc(Cl)cc(-c2nc3ccccc3s2)c1` [Compound 101], the EC50 was more than 10 µM.
Regarding `CC(=O)N[C@@H]1CC[C@@H](C(=O)Nc2nc3ccccc3s2)C1` [Compound 185], the EC50 was more than 10 µM.
The same measure, in the same setting: then `CC(=O)NCCCC(=O)Nc1nc(-c2ccccc2)cs1` [Compound 126], with more than 10 µM; and `CC(=O)NCCCC(=O)N[C@H]1CC[C@H](c2nc3ccccc3s2)C1` [Compound 115], with more than 10 µM; and `CC(=O)NCCCNC(=O)C12CCC(c3nc4ccccc4s3)(CC1)CC2` [Compound 173], with more than 10 µM.
Same read-out and setting: with `O=C(CCCN1C(=O)CCC1=O)Nc1nc2ccccc2s1` [Compound 108] the figure was more than 10 µM; with `O=C(CCCN1C(=O)CCC1=O)NC1CCC(c2nc3ccccc3s2)C1` (stereo not drawn) [Compound 90], more than 10 µM; with `CC(=O)NCCCC(=O)Nc1nc2ccccc2s1` [Compound 107], more than 10 µM.
Regarding `O=C(CCCCN1C(=O)CCC1=O)N[C@H]1CC[C@@H](c2nc3ccccc3s2)CC1` [Compound 151], the EC50 is more than 10 µM.
On the same count and under the same terms, with `CC(=O)NCCCC(=O)NCCCc1nc2ccccc2s1` [Compound 106] the figure was more than 10 µM.
`O=C(CCCN1C(=O)CCC1=O)NCCCc1nc2ccccc2s1` [Compound 91]: the EC50 was more than 10 µM.
With `O=C(CCN1CCCC1=O)Nc1ccc(Cc2nc3ccccc3s2)cc1` [Compound 8], the EC50 is more than 10 µM.
For the molecule `CC(C)(NC(=O)CCCN1CCCC1=O)c1ccc(-c2nc3ccccc3s2)cc1` [Compound 110], the EC50 is more than 10 µM.
Consider `O=C(CCCN1C(=O)CCC1=O)N[C@@H]1CC[C@@H](c2nc3ccccc3s2)C1` [Compound 162], for which the EC50 is more than 10 µM.
With `O=C(CCCN1C(=O)CCC1=O)NC1CCCC1c1nc2ccccc2s1` (stereo not drawn) [Compound 92], the EC50 was more than 10 µM.
On the same count and under the same terms, then `O=C(Cc1ccc(-c2nc3ccccc3s2)cc1)NCCN1CCCC1=O` [Compound 119], with more than 10 µM; and `O=C(CCCN1C(=O)CCC1=O)N[C@H]1C[C@@H](c2nc3ccccc3s2)C1` [Compound 97], with more than 10 µM.
The same measure, in the same setting: with `O=C(NCCN1C(=O)CCC1=O)c1ccc(-c2nc3ccccc3s2)cc1` [Compound 22] the figure was more than 10 µM; with `CC(=O)NCCCC(=O)N[C@H]1CC[C@@H](Cc2nc3ccccc3s2)CC1` [Compound 171], more than 10 µM; with `CC(=O)NCCCC(=O)N[C@H]1C[C@@H](c2nc3ccccc3s2)C1` [Compound 113], more than 10 µM.
Turning to `CN(C(=O)CCCN1C(=O)CCC1=O)c1ccc(-c2nc3cc(F)ccc3s2)cc1` [Compound 144], the EC50 was more than 10 µM.
In the case of `CC(=O)NCCCC(=O)Nc1cc(C)cc(-c2nc3ccccc3s2)c1` [Compound 72], the EC50 was more than 10 µM.
On to `CC(=O)N[C@H]1CC[C@@H](C(=O)Nc2nc3ccccc3s2)C1` [Compound 183], for which the EC50 was more than 10 µM.
Turning to `CC(=O)NCCCC(=O)Nc1cccc(-c2nc3ccccc3s2)c1` [Compound 71], the EC50 was more than 10 µM.
Same read-out and setting: with `O=C(CCCN1C(=O)CCC1=O)N[C@H]1CC[C@H](c2nc3ccccc3s2)C1` [Compound 161] the figure was more than 10 µM.
Consider `CC(=O)NCCCc1nc(CCCC(=O)Nc2ccc(-c3nc4cc(F)ccc4s3)cc2)co1` [Compound 138], for which the EC50 was more than 10 µM.
`CC(=O)NC1CCC(C(=O)N[C@H]2CC[C@H](c3nc4ccccc4s3)CC2)C1` (stereo partly drawn) [Compound 134]: the EC50 is more than 10 µM.
As for `CC(=O)N[C@@H]1CC[C@H](C(=O)Nc2nc3ccccc3s2)C1` [Compound 182], the EC50 is more than 10 µM.
The same measure, in the same setting: with `O=C(CCCN1C(=O)CCC1=O)NC1CCC(Cc2nc3ccccc3s2)C1` (stereo not drawn) [Compound 158] the figure was more than 10 µM.
Take `CN(C(=O)CCCN1C(=O)CCC1=O)c1ccc(Cc2nc3ccccc3s2)cc1` [Compound 169]: the EC50 was more than 10 µM.
Consider `O=C(NCCCN1C(=O)CCC1=O)c1ccc(-c2nc3ccccc3s2)cc1` [Compound 7], for which the EC50 is more than 10 µM.
For the molecule `CC(=O)NCCCC(=O)NC1CCC(c2nc3ccccc3s2)CC1` (stereo not drawn) [Compound 28], the EC50 was more than 10 µM.
Regarding `O=C(CCCc1cccnc1)N[C@H]1CC[C@@H](c2nc3ccccc3s2)CC1` [Compound 163], the EC50 was more than 10 µM.
In the case of `CC(=O)NC1CCC(C(=O)Nc2nc3ccccc3s2)C1` (stereo not drawn) [Compound 131], the EC50 is more than 10 µM.
For the molecule `CC(=O)NCCCC(=O)N[C@H]1CC[C@H](Cc2nc3ccccc3s2)CC1` [Compound 172], the EC50 was more than 10 µM.
With `CC(=O)NCCCNC(=O)c1ccc(-c2nc3ccccc3s2)o1` [Compound 149], the EC50 is more than 10 µM.
On the same count and under the same terms, with `O=C(CCCc1cnco1)Nc1ccc(Cc2nc3ccccc3s2)cc1` [Compound 66] the figure was more than 10 µM; with `O=C(CCCN1CCCC1=O)NC1CCCC1c1nc2ccccc2s1` (stereo not drawn) [Compound 117], more than 10 µM; with `O=C(CCCc1cccnc1)NC1CCC(c2nc3ccccc3s2)C1` (stereo not drawn) [Compound 157], more than 10 µM.
For the molecule `CC(=O)NCCCC(=O)N[C@H]1C[C@H](c2nc3ccccc3s2)C1` [Compound 112], the EC50 was more than 10 µM.
For `C=C(C)NCCC(=C)Nc1cc(C)cc(Cc2nc3ccccc3s2)c1` [Compound 120], the EC50 is more than 10 µM.
For the molecule `CC(=O)CCCCC(=O)Nc1ccc(-c2nccs2)cc1` [Compound 23], the EC50 was more than 10 µM.
With `O=C(CCC1CCC(=O)N1)Nc1ccc(-c2nc3ccccc3s2)o1` (stereo not drawn) [Compound 179], the EC50 was more than 10 µM.
On to `CN(C(=O)CCC1CCC(=O)N1)c1ccc(-c2nc3ccccc3s2)cc1` (stereo not drawn) [Compound 177], for which the EC50 was more than 10 µM.
Same read-out and setting: with `CC(=O)NCCCC(=O)Nc1cc(Cl)cc(-c2nc3cc(F)ccc3s2)c1` [Compound 102] the figure was more than 10 µM; with `O=C(CCCN1CCCC1=O)NCCCc1nc2ccccc2s1` [Compound 118], more than 10 µM; with `O=C(CCCN1C(=O)CCC1=O)NC1CC(c2nc3ccccc3s2)C1` (stereo not drawn) [Compound 89], more than 10 µM.
`O=C(CCC1CCC(=O)N1)Nc1ccc(Cc2nc3ccccc3s2)cc1` (stereo not drawn) [Compound 178]: the EC50 is more than 10 µM.
Regarding `CC(=O)NCCCC(=O)N[C@@H]1CC[C@H](c2nc3ccccc3s2)C1` [Compound 114], the EC50 is more than 10 µM.
For the molecule `O=C(NCCc1cncnc1)c1ccc(-c2nc3ccccc3s2)cc1` [Compound 11], the EC50 was more than 10 µM.
For `CC(=O)NCCCC(=O)Nc1ccc(-c2nccs2)cc1` [Compound 70], the EC50 is more than 10 µM.
The same measure, in the same setting: then `O=C(CCCc1cccnc1)N[C@H]1CC[C@H](c2nc3ccccc3s2)CC1` [Compound 164], with more than 10 µM.

For the next data set, the system named is HEK. The data set can be described thus: Cell cytotoxicity 50 assay (CC50), HEK cells. Format: cell-based.
Details: not given
In short, it runs like this:
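CC50 was fitted from total luminescence, measured 5 min after adding CellTiter-Glo reagent to HEK cells. The cells had been exposed for 72 h at 37 °C to medium serial dilutions prepared from a 10 mM drug solution.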
Regarding `O=C(CCCN1C(=O)CCC1=O)Nc1nc2ccccc2s1` [Compound 108], the CC50 was more than 10 µM.
The same measure, in the same setting: then `O=C(CCCN1C(=O)CCC1=O)N[C@H]1CC[C@H](c2nc3ccccc3s2)C1` [Compound 161], with more than 10 µM.

Another data set has as its system MB200 cells. Nature of the data set: Cell cytotoxicity 50 assay (CC50), MB200 cells, cell titer glo. The settings on record: 72 h. Format: cell-based. In short, it runs like this:
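Luminescence from CellTiter-Glo after 72 h of compound exposure at 37 °C gave the CC50 for MB200 cells. These were plated at 10 k cells/well in triplicate in supplemented F10 medium and treated with a serial dilution series prepared from a 10 mM stock.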
On the technique in general: ATP-based viability assays read luminescence as a measure of living cells.
Regarding `O=C(CCCN1C(=O)CCC1=O)Nc1nc2ccccc2s1` [Compound 108], the CC50 was more than 10 µM.
Same read-out and setting: then `O=C(CCCN1C(=O)CCC1=O)N[C@H]1CC[C@H](c2nc3ccccc3s2)C1` [Compound 161], with more than 10 µM.
